In patent publication US6365607B1, “Anticachectic composition” (Takeda Chemical Industries, Ltd., priority 1996, dated 2002):
Like-named read-outs stand apart in the source and are kept apart here.

Key:
[1] = test system: fat cells in rat epididymis adipose tissue; assay: Antilipolytic activity: glycerol released from IL-1β-treated rat fat cells; assay type: cell-based; conditions: read-out: antilipolytic concentration IC50
Protocol: In accordance with the method of Green et al. [Endocrinology, 134, 2581-2588 (1994)], the antilipolytic activity of the compound of the present invention was evaluated by quantitating the glycerol released from fat cells in rat epididymis adipose tissue.
Thus, the rat epididymis adipose tissue was isolated, cut into pieces with a pair of scissors, and digested into fat cells by agitating in collagenase-containing phosphate buffer for 1 hour. To a culture solution containing fat cells was added 10 ng/ml of IL-1β (manufactured by Pharmingen, PM-19101V). Then, in treatment groups, solutions of compound (2) in N,N-dimethylformamide at graded concentrations were respectively added. After 24 hours, the supernatant was recovered and the glycerol therein was quantitated with an assay kit (manufactured by Sigma, 337-A). The amount of released glycerol in each group treated with compound (2) relative to that in the control group was determined to find the inhibition rate and the 50% inhibition concentration IC50 of the compound was calculated. The antilipolytic concentration IC50 value of compound (2) was 4 nM.
The antilipolytic activity of indomethacin was evaluated by the same method as in Test Example 1. The antilipolytic concentration IC50 value of indomethacin was not less than 10 mM.

[2] = test system: tumor-bearing mice (mouse colon cancer cell line Colon 26); assay: Weight loss inhibitory activity in tumor-bearing mice (Colon 26 cachexia model); assay type: in vivo; conditions: CDF1 mice
Protocol: Using the mouse colon cancer cell line Colon 26 (Tanaka et al., Cancer Research, 50, 4528-4532 (1990)), which is a system known to be high in the reproducibility of cancer cachectic symptoms, the inhibitory effect of the compound of the present invention on lipolysis and body weight loss was evaluated.
Thus, 1×10^6 Colon 26 cells were transplanted sub-dermaly in 4-week-old CDF1 mice. On day 14 after transplantation, the mice were divided into groups according to tumor size. A 5% (w/v) gum arabic suspension containing compound (2) was administered orally in a dose of 1.0 mg/kg to one group of mice and, as a control, a 5% (w/v) gum arabic suspension was similarly administered to another group, once daily for 7 days in each case. An additional group of mice was not transplanted with Colon 26 cells (normal group). On days 14, 18 and 21 after transplantation, the mice were weighed. On day 22 after transplantation, each mouse was autopsied and the epididymis adipose tissue was isolated and weighed. Changes in mouse body weight and adipose tissue weight are shown in Table 1 and Table 2, respectively.

| SMILES | IC50 ([1]; inhibition of glycerol release, 10 ng/ml IL-1β, 24 hours) [µM] | body weight of tumor-bearing mice, 21st Day after transplantation ([2]; 1.0 mg/kg orally once daily for 7 days from day 14) [g] | body weight of tumor-bearing mice, 18th Day after transplantation ([2]; 1.0 mg/kg orally once daily from day 14) [g] | body weight of tumor-bearing mice, 14th Day after transplantation ([2]; day 14 (grouping, start of dosing), 1.0 mg/kg orally once daily for 7 days) [g] | IC50 ([1]; same method as Test Example 1 (glycerol release, IL-1β, 24 hours)) [µM] |
| --- | --- | --- | --- | --- | --- |
| Cc1oc(-c2ccccc2)nc1C(O)COc1ccc(CC2SC(=O)NC2=O)cc1 (centres unmarked) [compound (2), 5-[4-[2-hydroxy-2-(5-methyl-2-phenyl-4-oxazolyl)ethoxy]benzyl]-2,4-thiazolidinedione] | 0.004 | 25.6 | 26.3 | 26.3 | – |
| COc1ccc2c(c1)c(CC(=O)O)c(C)n2C(=O)c1ccc(Cl)cc1 [indomethacin, reference compound] | – | – | – | – | ≥ 10000 |
